In patent publication US11655225B2, “Antimycobacterial heterocyclic amides” (Crestone, Inc., priority 2018, dated 2023):
In brackets after ≈: the same amount, converted by molar mass.

Each molecule was assayed on azithromycin-, doxycycline, and sulfamethoxazole-resistant M. abscessus (assay: MIC against drug-resistant strains). Settings: Mycobacteroides abscessus; clinically relevant resistant strains, M. abscessus; range over compounds and strains.
Assay type: cell-based
For `CC1CC(C(=O)Nc2nc3ccc(OC(F)(F)F)cc3s2)CC(C)(C)C1` (stereo not shown) [Example 46, 3,3,5-trimethyl-N-[6-(trifluoromethoxy)-1,3-benzothiazol-2-yl]cyclohexane-1-carboxamide], the MIC was 0.03 to 4 µg/mL (≈ 0.0776 to 10.4 µM).

Same assay, conditions: azithromycin-, doxycycline, and sulfamethoxazole-resistant M. abscessus
With `CC1CC(C(=O)Nc2nc3ccc(OC(F)(F)F)cc3s2)CC(C)(C)C1` (stereo not shown) [Example 46, 3,3,5-trimethyl-N-[6-(trifluoromethoxy)-1,3-benzothiazol-2-yl]cyclohexane-1-carboxamide] the “activity against resistant strains” value was “active”.

The molecules below were run on M. abscessus (assay: MIC determination, CLSI M24-A). Settings: Mycobacteroides abscessus, CLSI M24-A.
Assay type: cell-based
`COC1CCCC(C(=O)Nc2nc3ccc(Cl)cc3s2)C1` (stereo not shown) [Example 191, N-(6-chloro-1,3-benzothiazol-2-yl)-3-methoxycyclohexane-1-carboxamide] showed an MIC of 2 to 32 µg/mL (≈ 6.16 to 98.5 µM). Work on `CC12CC3CC(C)(C1)CC(C(=O)Nc1nc4ccc(C(F)(F)F)cc4o1)(C3)C2` [Example 150, 3,5-dimethyl-N-[6-(trifluoromethyl)-1,3-benzoxazol-2-yl]adamantane-1-carboxamide] yielded an MIC of 2 to 32 µg/mL (≈ 5.1 to 81.5 µM). For `CCOc1ccc2nc(NC(=O)C3CC4CCCC(C4)C3)sc2c1` (stereo not shown) [Example 138, N-(6-ethoxy-1,3-benzothiazol-2-yl)bicyclo[3.3.1]nonane-3-carboxamide], the MIC was 2 to 32 µg/mL (≈ 5.81 to 92.9 µM). Molecule `CC1CC(C(=O)Nc2nc3ccc(SC(F)(F)F)cc3s2)CC(C)(C)C1` (stereo not shown) [Example 177, 3,3,5-trimethyl-N-{6-[(trifluoromethyl)sulfanyl]-1,3-benzothiazol-2-yl}cyclohexane-1-carboxamide] has an MIC of 2 to 32 µg/mL (≈ 4.97 to 79.5 µM). With `COc1ccc2nc(NC(=O)C3CC(C)CC(C)(C)C3)oc2c1` (stereo not shown) [Example 162, N-(6-methoxy-1,3-benzoxazol-2-yl)-3,3,5-trimethylcyclohexane-1-carboxamide] the MIC was 2 to 32 µg/mL (≈ 6.32 to 101 µM). `CC1(C(=O)Nc2nc3c(F)c(F)c(F)cc3s2)CCCCC1` [Example 154, 1-methyl-N-(4,5,6-trifluoro-1,3-benzothiazol-2-yl)cyclohexane-1-carboxamide] gave an MIC of 2 to 32 µg/mL (≈ 6.09 to 97.5 µM). With `CC1CC(C(=O)Nc2nc3c(F)cc(F)cc3o2)CC(C)(C)C1` (stereo not shown) [Example 189, N-(4,6-difluoro-1,3-benzoxazol-2-yl)-3,3,5-trimethylcyclohexane-1-carboxamide] the MIC was 2 to 32 µg/mL (≈ 6.2 to 99.3 µM). Molecule `CC1CC(C(=O)Nc2nc3cccc(O)c3s2)CC(C)(C)C1` (stereo not shown) [Example 174, N-(7-hydroxy-1,3-benzothiazol-2-yl)-3,3,5-trimethylcyclohexane-1-carboxamide] has an MIC of 2 to 32 µg/mL (≈ 6.28 to 100 µM). Work on `CC1(C(=O)Nc2nc3ccc(OC(F)(F)F)cc3s2)CC2CC2C1` (stereo not shown) [Example 137, 3-methyl-N-[6-(trifluoromethoxy)-1,3-benzothiazol-2-yl]bicyclo[3.1.0]hexane-3-carboxamide] yielded an MIC of 2 to 32 µg/mL (≈ 5.61 to 89.8 µM). Molecule `O=C(Nc1nc2c(F)cc(F)cc2s1)C1CCCCCCC1` [Example 109, N-(4,6-difluoro-1,3-benzothiazol-2-yl)cyclooctanecarboxamide] has an MIC of 2 to 32 µg/mL (≈ 6.17 to 98.6 µM). `CC1(C(=O)Nc2nc3ccc(Cl)cc3s2)CCCCC1` [Example 135, N-(6-chloro-1,3-benzothiazol-2-yl)-1-methylcyclohexane-1-carboxamide] showed an MIC of 2 to 32 µg/mL (≈ 6.48 to 104 µM). In the case of `CC12CC3CC(C)(C1)CC(C(=O)Nc1nc4ccccc4[nH]1)(C3)C2` [Example 146, N-(1H-1,3-benzodiazol-2-yl)-3,5-dimethyladamantane-1-carboxamide], the MIC is reported as 2 to 32 µg/mL (≈ 6.18 to 98.9 µM). Molecule `CC1CC(C(=O)Nc2nc3ccccc3o2)CC(C)(C)C1` (stereo not shown) [Example 165, N-(1,3-benzoxazol-2-yl)-3,3,5-trimethylcyclohexane-1-carboxamide] has an MIC of 2 to 32 µg/mL (≈ 6.98 to 112 µM). With `CC1CC(C(=O)Nc2nc3ccc(F)cc3[nH]2)CC(C)(C)C1` (stereo not shown) [Example 178, N-(6-fluoro-1H-1,3-benzodiazol-2-yl)-3,3,5-trimethylcyclohexane-1-carboxamide] the MIC was 2 to 32 µg/mL (≈ 6.59 to 105 µM). With `O=C(Nc1nc2c(F)c(F)c(F)cc2s1)C1CCCCCC1` [Example 141, N-(4,5,6-trifluoro-1,3-benzothiazol-2-yl)cycloheptanecarboxamide] the MIC was 2 to 32 µg/mL (≈ 6.09 to 97.5 µM). With `Cc1cccc2sc(NC(=O)C3CCCC(C)C3)nc12` (stereo not shown) [Example 180, 3-methyl-N-(4-methyl-1,3-benzothiazol-2-yl)cyclohexane-1-carboxamide] the MIC was 2 to 32 µg/mL (≈ 6.93 to 111 µM). In the case of `COc1ccc2nc(NC(=O)C34CC5CC(C)(CC(C)(C5)C3)C4)oc2c1` [Example 145, N-(6-methoxy-1,3-benzoxazol-2-yl)-3,5-dimethyladamantane-1-carboxamide], the MIC is reported as 2 to 32 µg/mL (≈ 5.64 to 90.3 µM). Molecule `O=C(Nc1nc2ccc(Cl)cc2s1)C1CCCCCCC1` [Example 110, N-(6-chloro-1,3-benzothiazol-2-yl)cyclooctanecarboxamide] has an MIC of 2 to 32 µg/mL (≈ 6.19 to 99.1 µM). Molecule `CC1CC(C(=O)Nc2nc3ccc(N(C)C)cc3s2)CC(C)(C)C1` (stereo not shown) [Example 186, N-[6-(dimethylamino)-1,3-benzothiazol-2-yl]-3,3,5-trimethylcyclohexane-1-carboxamide] has an MIC of 2 to 32 µg/mL (≈ 5.79 to 92.6 µM). With `CC1CCCC(C(=O)Nc2nc3ccc(Cl)cc3s2)C1` (stereo not shown) [Example 168, N-(6-chloro-1,3-benzothiazol-2-yl)-3-methylcyclohexane-1-carboxamide] the MIC was 2 to 32 µg/mL (≈ 6.48 to 104 µM). For `O=C(Nc1nc2c(F)c(F)c(F)cc2s1)C1CCCCCCC1` [Example 116, N-(4,5,6-trifluoro-1,3-benzothiazol-2-yl)cyclooctanecarboxamide], the MIC was 2 to 32 µg/mL (≈ 5.84 to 93.5 µM). `O=C(Nc1nc2ccc(OC(F)F)cc2s1)C1CCCCC1` [Example 156, N-[6-(difluoromethoxy)-1,3-benzothiazol-2-yl]cyclohexanecarboxamide] gave an MIC of 2 to 32 µg/mL (≈ 6.13 to 98 µM). Work on `CC1CC(C(=O)Nc2nc3ccccc3s2)CC(C)(C)C1` (stereo not shown) [Example 125, N-(1,3-benzothiazol-2-yl)-3,3,5-trimethylcyclohexane-1-carboxamide] yielded an MIC of 2 to 32 µg/mL (≈ 6.61 to 106 µM). `Cc1cc(C)c2oc(NC(=O)C34CC5CC(C)(CC(C)(C5)C3)C4)nc2c1` [Example 161, N-(5,7-dimethyl-1,3-benzoxazol-2-yl)-3,5-dimethyladamantane-1-carboxamide] was tested, and the MIC was 2 to 32 µg/mL (≈ 5.67 to 90.8 µM). With `CC12CC3CC(C)(C1)CC(C(=O)Nc1nc4ccccc4o1)(C3)C2` [Example 147, N-(1,3-benzoxazol-2-yl)-3,5-dimethyladamantane-1-carboxamide] the MIC was 2 to 32 µg/mL (≈ 6.16 to 98.6 µM). `C[C@]1(C(=O)Nc2nc3ccc(OC(F)(F)F)cc3s2)C[C@@H]2C=C[C@H]1C2` [Example 129, (1R,2S,4R)-2-methyl-N-[6-(trifluoromethoxy)-1,3-benzothiazol-2-yl]bicyclo[2.2.1]hept-5-ene-2-carboxamide] showed an MIC of 2 to 32 µg/mL (≈ 5.43 to 86.9 µM). Work on `CC1(C(=O)Nc2nc3ccc(OC(F)(F)F)cc3s2)CC2CCC1C2` (stereo not shown) [Example 104, 2-methyl-N-[6-(trifluoromethoxy)-1,3-benzothiazol-2-yl]bicyclo[2.2.1]heptane-2-carboxamide] yielded an MIC of 2 to 32 µg/mL (≈ 5.4 to 86.4 µM). `O=C(Nc1nc2ccc(C(F)(F)F)cc2s1)C1CCC2(CC1)CC2` [Example 192, N-[6-(trifluoromethyl)-1,3-benzothiazol-2-yl]spiro[2.5]octane-6-carboxamide] gave an MIC of 2 to 32 µg/mL (≈ 5.64 to 90.3 µM). Molecule `Cc1cccc2sc(NC(=O)C3CC4CCC3C4)nc12` (stereo not shown) [Example 183, N-(4-methyl-1,3-benzothiazol-2-yl)bicyclo[2.2.1]heptane-2-carboxamide] has an MIC of 2 to 32 µg/mL (≈ 6.98 to 112 µM). Molecule `CC1CCCC(NC(=O)Nc2nc3ccc(C(F)(F)F)cc3s2)C1` (stereo not shown) [Example 149, 1-(3-methylcyclohexyl)-3-[6-(trifluoromethyl)-1,3-benzothiazol-2-yl]urea] has an MIC of 2 to 32 µg/mL (≈ 5.6 to 89.5 µM). `CC1(C(=O)Nc2nc3cc(Br)ccc3s2)CCCC1` [Example 153, N-(5-bromo-1,3-benzothiazol-2-yl)-1-methylcyclopentane-1-carboxamide] showed an MIC of 2 to 32 µg/mL (≈ 5.9 to 94.3 µM). In the case of `CC1(C(=O)Nc2cc3ccccc3s2)CCCCC1` [Example 105, N-(1-benzothiophen-2-yl)-1-methylcyclohexane-1-carboxamide], the MIC is reported as 2 to 32 µg/mL (≈ 7.32 to 117 µM). Molecule `CC1(C(=O)Nc2nc3c(F)cc(F)cc3s2)CCCCC1` [Example 171, N-(4,6-difluoro-1,3-benzothiazol-2-yl)-1-methylcyclohexane-1-carboxamide] has an MIC of 2 to 32 µg/mL (≈ 6.44 to 103 µM). Work on `CC1CCCC(C(=O)Nc2nc3ccc(F)cc3s2)C1` (stereo not shown) [Example 170, N-(6-fluoro-1,3-benzothiazol-2-yl)-3-methylcyclohexane-1-carboxamide] yielded an MIC of 2 to 32 µg/mL (≈ 6.84 to 109 µM). `COc1ccc2nc(NC(=O)C34CC5CC(C)(CC(C)(C5)C3)C4)sc2c1` [Example 124, N-(6-methoxy-1,3-benzothiazol-2-yl)-3,5-dimethyladamantane-1-carboxamide] was tested, and the MIC was 2 to 32 µg/mL (≈ 5.4 to 86.4 µM). With `Cc1cc2nc(NC(=O)C3(C)CCCCC3)sc2c(C)c1Br` [Example 106, N-(6-bromo-5,7-dimethyl-1,3-benzothiazol-2-yl)-1-methylcyclohexane-1-carboxamide] the MIC was 2 to 32 µg/mL (≈ 5.24 to 83.9 µM). Molecule `Cc1cc(C)c2oc(NC(=O)C3CC(C)CC(C)(C)C3)nc2c1` (stereo not shown) [Example 143, N-(5,7-dimethyl-1,3-benzoxazol-2-yl)-3,3,5-trimethylcyclohexane-1-carboxamide] has an MIC of 2 to 32 µg/mL (≈ 6.36 to 102 µM). Molecule `CC1CCC(C(=O)Nc2nc3ccc(OC(F)(F)F)cc3s2)C1` (stereo not shown) [Example 102, 3-methyl-N-[6-(trifluoromethoxy)-1,3-benzothiazol-2-yl]cyclopentane-1-carboxamide] has an MIC of 2 to 32 µg/mL (≈ 5.81 to 92.9 µM). With `CC1CC(C(=O)Nc2nc3cc(Br)ccc3s2)CC(C)(C)C1` (stereo not shown) [Example 190, N-(5-bromo-1,3-benzothiazol-2-yl)-3,3,5-trimethylcyclohexane-1-carboxamide] the MIC was 2 to 32 µg/mL (≈ 5.24 to 83.9 µM). Work on `O=C(Nc1nc2c(F)cc(F)cc2s1)C1CCCCCC1` [Example 139, N-(4,6-difluoro-1,3-benzothiazol-2-yl)cycloheptanecarboxamide] yielded an MIC of 2 to 32 µg/mL (≈ 6.44 to 103 µM). `O=C(Nc1nc2ccc(OC(F)(F)F)cc2s1)C1CCCCC1` [Example 188, N-[6-(trifluoromethoxy)-1,3-benzothiazol-2-yl]cyclohexanecarboxamide] was tested, and the MIC was 2 to 32 µg/mL (≈ 5.81 to 92.9 µM). Molecule `CC1CC(C(=O)Nc2nc3cc(F)c(F)cc3o2)CC(C)(C)C1` (stereo not shown) [Example 175, N-(5,6-difluoro-1,3-benzoxazol-2-yl)-3,3,5-trimethylcyclohexane-1-carboxamide] has an MIC of 2 to 32 µg/mL (≈ 6.2 to 99.3 µM). Molecule `CC1CC(C(=O)Nc2nc3cc(Cl)cc(Cl)c3o2)CC(C)(C)C1` (stereo not shown) [Example 142, N-(5,7-dichloro-1,3-benzoxazol-2-yl)-3,3,5-trimethylcyclohexane-1-carboxamide] has an MIC of 2 to 32 µg/mL (≈ 5.63 to 90.1 µM). Work on `CC1CCCCC1C(=O)Nc1nc2ccccc2s1` (stereo not shown) [Example 166, N-(1,3-benzothiazol-2-yl)-2-methylcyclohexane-1-carboxamide] yielded an MIC of 2 to 32 µg/mL (≈ 7.29 to 117 µM).
